The target in assay [1] is T1, Eukaryotic elongation factor 2 kinase (Rattus norvegicus, UniProt P70531).
T1 sequence (P70531 whole entry): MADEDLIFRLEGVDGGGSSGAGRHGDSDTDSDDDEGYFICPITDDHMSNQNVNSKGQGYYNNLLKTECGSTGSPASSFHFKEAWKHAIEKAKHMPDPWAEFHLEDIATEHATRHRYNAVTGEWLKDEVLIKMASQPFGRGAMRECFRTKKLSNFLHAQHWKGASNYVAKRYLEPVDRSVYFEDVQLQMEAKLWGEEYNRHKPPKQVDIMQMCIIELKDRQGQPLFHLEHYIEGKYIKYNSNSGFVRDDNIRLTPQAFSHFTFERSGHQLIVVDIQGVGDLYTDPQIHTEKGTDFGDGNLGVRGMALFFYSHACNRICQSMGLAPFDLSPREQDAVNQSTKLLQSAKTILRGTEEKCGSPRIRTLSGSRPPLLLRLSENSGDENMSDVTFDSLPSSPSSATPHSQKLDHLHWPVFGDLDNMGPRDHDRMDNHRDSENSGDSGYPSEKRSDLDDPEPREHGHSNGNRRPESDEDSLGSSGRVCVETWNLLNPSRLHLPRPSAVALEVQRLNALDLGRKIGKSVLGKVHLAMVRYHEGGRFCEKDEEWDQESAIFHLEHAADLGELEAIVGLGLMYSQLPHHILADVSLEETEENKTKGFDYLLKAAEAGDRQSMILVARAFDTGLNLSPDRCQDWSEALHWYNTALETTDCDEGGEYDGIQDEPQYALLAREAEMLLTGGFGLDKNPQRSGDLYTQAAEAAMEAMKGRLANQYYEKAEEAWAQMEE
Nature of the assay: Inhibition of recombinant rat GST-tagged eEF2K expressed in Escherichia coli BL21 (DE3) cells using yeast eEF2 as substrate preincubated for 30 mins followed by ATP/[gamma-32P]-ATP addition measured after 10 mins.

Assay [2] concerns the target T2, Eukaryotic elongation factor 2 kinase (Homo sapiens, UniProt O00418).
T2 sequence (O00418 whole entry): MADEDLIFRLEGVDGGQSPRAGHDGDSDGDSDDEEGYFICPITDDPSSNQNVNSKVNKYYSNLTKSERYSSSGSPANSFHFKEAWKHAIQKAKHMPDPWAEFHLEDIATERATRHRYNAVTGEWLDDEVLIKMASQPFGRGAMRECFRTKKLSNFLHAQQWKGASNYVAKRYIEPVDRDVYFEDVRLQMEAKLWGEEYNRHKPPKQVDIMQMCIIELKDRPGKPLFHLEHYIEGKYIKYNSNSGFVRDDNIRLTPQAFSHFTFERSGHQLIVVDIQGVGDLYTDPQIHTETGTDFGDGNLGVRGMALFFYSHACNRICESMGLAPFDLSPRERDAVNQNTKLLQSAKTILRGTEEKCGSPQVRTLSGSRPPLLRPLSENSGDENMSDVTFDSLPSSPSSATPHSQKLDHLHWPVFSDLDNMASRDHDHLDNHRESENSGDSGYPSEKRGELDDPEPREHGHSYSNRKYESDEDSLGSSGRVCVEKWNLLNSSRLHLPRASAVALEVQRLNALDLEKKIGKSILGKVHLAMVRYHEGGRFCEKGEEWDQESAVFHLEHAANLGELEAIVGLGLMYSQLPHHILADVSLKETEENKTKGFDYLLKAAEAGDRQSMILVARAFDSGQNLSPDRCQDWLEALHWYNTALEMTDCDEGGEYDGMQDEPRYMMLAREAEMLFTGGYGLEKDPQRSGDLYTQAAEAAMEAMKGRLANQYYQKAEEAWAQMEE
Nature of the assay: Inhibition of N-terminal GST-tagged recombinant human eEF2K expressed in Escherichia coli using biotinylated myelin basic protein as substrate after 45 mins in presence of [gamma-33P]-ATP by scintillation counting method.

pIC50: −log10 of the molar value.

`CCC1(O)CC(C(C)C)[Se]C(c2ccc(C)cc2)=N1` (configuration not stated): the pIC50 (as a rule, −log10 of the IC50, conventionally taken in molar units) in assay [1] was 6.44. As to `CCCCCCCCCCCCCCCC[N+]1=C(C)N(Cc2ccccc2)CC1`, the pIC50 in assay [2] was 7.22.

The values are drawn from ChEMBL document CHEMBL4138216, “Design, synthesis and structure-activity relationship of a focused library of β-phenylalanine derivatives as novel eEF2K inhibitors with apoptosis-inducing mechanisms in breast cancer” (Eur J Med Chem, 2018).
